The source of these data is patent US20220370416A1, “COMPOUNDS AND METHODS FOR TARGETED DEGRADATION OF KRAS” (Arvinas Operations, Inc., priority 2020, published 2022).

For assay [1], the target named is T1, HiBit-KRAS^G12C (Homo sapiens, UniProt P01116, G12C). In words: HiBit degradation assay in MiaPaCa-2 HiBit-KRas^G12C cells. It is filed as cell-based. As to conditions: 24 hours; for Dmax: MIA PaCa-2, MiaPaCa-2 HiBit-KRas^G12C cells. The essentials: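 DC50 and Dmax come from 4-parameter fits of DMSO-normalized HiBit luminescence after 24 hours' exposure at 37° C to 10 μM–20 nM compound in 0.1% or 0.5% DMSO. Cells: MiaPaCa-2 carrying one endogenously HiBit-tagged KRAS^G12C allele; concentrations causing ≥50% […] viability loss (alamar blue) excluded.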
T1 sequence (P01116 1-186 isoform P01116-2 G12C limits assumed): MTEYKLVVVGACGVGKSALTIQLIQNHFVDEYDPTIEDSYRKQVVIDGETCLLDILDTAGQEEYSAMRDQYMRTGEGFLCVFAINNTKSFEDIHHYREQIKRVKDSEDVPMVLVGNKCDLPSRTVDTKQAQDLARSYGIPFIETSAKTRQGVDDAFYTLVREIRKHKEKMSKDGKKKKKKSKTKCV
A general note: The HiBiT peptide binds its large partner to form an active luciferase.

Assay [2] concerns the target T1, HiBit-KRAS^G12C. As to the kind of experiment: HiBit degradation assay in SW1573 HiBit-KRas^G12C cells. It is filed as cell-based. Also noted: expressed in transfected cells; host or cells: SW1573 (clone E6), modified pcDNA3.1 vector, TK promoter. As to conditions: 24 hours; for Dmax: SW1573, SW1573 HiBit-KRas^G12C. The method in brief:
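HiBit-KRAS G12C degradation was measured after a 24 h compound exposure (titrated 10 μM–20 nM) in engineered SW1573 cells. Lytic HiBit luminescence, expressed relative to DMSO controls, yielded DC50 and Dmax from 4-parameter fits. Concentrations causing ≥50% loss in alamar blue viability were omitted as cytotoxic.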

Setting [3] is: read-out: KRas^G12C-HiBiT (MiaPaCa; 0.1% DMSO) IC50, MiaPaCa-2 HiBit-KRas^G12C cells, 0.1% DMSO.
Where [4] appears, read: read-out: KRas^G12C-HiBiT (MiaPaCa; 0.5% DMSO) IC50, MiaPaCa-2 HiBit-KRas^G12C cells, 0.5% DMSO.
The mark [5] stands for this setting: 0.1% DMSO, read-out: KRas^G12C-HiBit (SW1573; 0.1% DMSO) Dmax**.
Setting [6] is: SW1573 HiBit-KRas^G12C, 0.1% DMSO, read-out: KRas^G12C-HIBit (SW1573; 0.1% DMSO) DC50*.
The mark [7] stands for this setting: read-out: KRas^G12C-HiBiT (SW1573; 0.5% DMSO) IC50***, SW1573 HiBit-KRas^G12C, 0.5% DMSO.
Where [8] appears, read: 0.5% DMSO, maximum degradation, read-out: KRas^G12C-HiBiT (MiaPaCa; 0.5% DMSO) DMax.
Where [9] appears, read: 0.5% DMSO, read-out: KRas^G12C-HiBiT (SW1573; 0.5% DMSO) Dmax**.
The mark [10] stands for this setting: MiaPaCa-2 HiBit-KRas^G12C cells, 0.5% DMSO, maximum degradation.
[11] abbreviates: SW1573 HiBit-KRas^G12C, 0.5% DMSO.

Take `C=CC(=O)N1CCN(c2nc(OC[C@@H]3C[C@@H](OCCOc4cc(-c5scnc5C)ccc4CNC(=O)[C@@H]4C[C@@H](O)CN4C(=O)[C@H](c4cc(C)no4)C(C)C)CN3C)nc3c2CCN(c2cccc4ccccc24)C3)C[C@@H]1CC#N` [Compound 89, (2S,4R)-N-{[2-(2-{[(3R,5S)-5-[({4-[(3S)-3-(cyanomethyl)-4-(prop-2-enoyl)piperazin-1-yl]-7-(naphthalen-1-yl)-5H,6H,7H,8H-pyrido[3,4-d]pyrimidin-2-yl}oxy)methyl]-1-methylpyrrolidin-3-yl]oxy}ethoxy)-4-(4-methyl-1,3-thiazol-5-yl)phenyl]methyl}-4-hydroxy-1-[(2S)-3-methyl-2-(3-methyl-1,2-oxazol-5-yl)butanoyl]pyrrolidine-2-carboxamide]: the DC50 at HiBit-KRAS^G12C [1] (setting [3]) is above 1000 nM; on HiBit-KRAS^G12C [1] (setting [4]), above 1000 nM; on HiBit-KRAS^G12C [2] (setting [6]), 100 to 1000 nM; at HiBit-KRAS^G12C [2] (setting [7]), above 1000 nM. The Dmax on HiBit-KRAS^G12C [2] (setting [5]) is 35 to 70%.

On to `C=CC(=O)N1CCN(c2nc(O[C@H](C)CN3CCC(OCCOCC(=O)N[C@H](C(=O)N4C[C@H](O)C[C@H]4C(=O)N[C@@H](C)c4ccc(-c5scnc5C)cc4)C(C)(C)C)CC3)nc3c2CCN(c2cc(O)cc4ccccc24)C3)C[C@@H]1CC#N` [Compound 31, (2S,4R)-1-[(2S)-2-{2-[2-({1-[(2R)-2-({4-[(3S)-3-(cyanomethyl)-4-(prop-2-enoyl)piperazin-1-yl]-7-(3-hydroxynaphthalen-1-yl)-5H,6H,7H,8H-pyrido[3,4-d]pyrimidin-2-yl}oxy)propyl]piperidin-4-yl}oxy)ethoxy]acetamido}-3,3-dimethylbutanoyl]-4-hydroxy-N-[(1S)-1-[4-(4-methyl-1,3-thiazol-5-yl)phenyl]ethyl]pyrrolidine-2-carboxamide], for which the Dmax at HiBit-KRAS^G12C [1] (0.1% DMSO, maximum degradation, read-out: KRas^G12C-HiBiT (MiaPaCa; 0.1% DMSO) DMax) is below 35%; on HiBit-KRAS^G12C [1] (setting [8]), below 35%; at HiBit-KRAS^G12C [2] (setting [5]) it was 35 to 70%; at HiBit-KRAS^G12C [2] (setting [9]) it was 35 to 70%. Besides, at HiBit-KRAS^G12C [2] (setting [6]), the DC50 was above 1000 nM.

With `C=CC(=O)N1CCN(c2nc(OCCN3CCC4(CC3)CN(c3cc([C@H](C(=O)N5C[C@H](O)C[C@H]5C(=O)N[C@@H](C)c5ccc(-c6scnc6C)cc5)C(C)C)on3)C4)nc3c(F)c(-c4cc(O)cc5ccccc45)c(Cl)cc23)C[C@@H]1CC#N` [Compound 139, (2S,4R)-1-[(2R)-2-(3-{7-[2-({6-chloro-4-[(3S)-3-(cyanomethyl)-4-(prop-2-enoyl)piperazin-1-yl]-8-fluoro-7-(3-hydroxynaphthalen-1-yl)quinazolin-2-yl}oxy)ethyl]-2,7-diazaspiro[3.5]nonan-2-yl}-1,2-oxazol-5-yl)-3-methylbutanoyl]-4-hydroxy-N-[(1S)-1-[4-(4-methyl-1,3-thiazol-5-yl)phenyl]ethyl]pyrrolidine-2-carboxamide], the “KRas^G12C-HiBiT (MiaPaCa; 0.5% DMSO) DMax” value at HiBit-KRAS^G12C [1] (setting [10]) is reported as “A (A ≥ 70)”. The DC50 at HiBit-KRAS^G12C [1] (setting [4]) was 100 to 1000 nM; on HiBit-KRAS^G12C [2] (setting [7]), below 100 nM. Also, the “KRas^G12C-HiBiT (SW1573; 0.5% DMSO) Dmax**” value on HiBit-KRAS^G12C [2] (setting [11]) is reported as “A (A ≥ 70)”.

`C=CC(=O)N1CCN(c2nc(OCCN3CCC(COc4cc([C@@H](C(=O)N5C[C@H](O)C[C@H]5C(=O)N[C@@H](C)c5ccc(-c6scnc6C)cc5)C(C)C)on4)CC3)nc3c(F)c(-c4cc(O)cc5ccccc45)c(Cl)cc23)C[C@@H]1CC#N` (atropisomer, axis not shown) [Compound 154, (2S,4R)-1-[(2S)-2-[3-({1-[2-({6-chloro-4-[(3S)-3-(cyanomethyl)-4-(prop-2-enoyl)piperazin-1-yl]-8-fluoro-7-(3-hydroxynaphthalen-1-yl)quinazolin-2-yl}oxy)ethyl]piperidin-4-yl}methoxy)-1,2-oxazol-5-yl]-3-methylbutanoyl]-4-hydroxy-N-[(1S)-1-[4-(4-methyl-1,3-thiazol-5-yl)phenyl]ethyl]pyrrolidine-2-carboxamide]: the Dmax on HiBit-KRAS^G12C [1] (setting [8]) is below 35%. In addition, the DC50 at HiBit-KRAS^G12C [1] (setting [4]) is 100 to 1000 nM; on HiBit-KRAS^G12C [2] (setting [7]), above 1000 nM.

Take `C=CC(=O)N1CCN(c2nc(O[C@H](C)CN3CCC(OCCN4CCN(CC(=O)N[C@H](C(=O)N5C[C@H](O)C[C@H]5C(=O)N[C@@H](C)c5ccc(-c6scnc6C)cc5)C(C)(C)C)CC4)CC3)nc3c(F)c(-c4cc(O)cc5ccccc45)c(Cl)cc23)CC1` [Compound 54, (2S,4R)-1-[(2S)-2-(2-{4-[2-({1-[(2R)-2-{[6-chloro-8-fluoro-7-(3-hydroxynaphthalen-1-yl)-4-[4-(prop-2-enoyl)piperazin-1-yl]quinazolin-2-yl]oxy}propyl]piperidin-4-yl}oxy)ethyl]piperazin-1-yl}acetamido)-3,3-dimethylbutanoyl]-4-hydroxy-N-[(1S)-1-[4-(4-methyl-1,3-thiazol-5-yl)phenyl]ethyl]pyrrolidine-2-carboxamide]: the values for the DC50 on HiBit-KRAS^G12C [1] (setting [3]) and on HiBit-KRAS^G12C [2] (setting [6]) were above 1000 nM and below 100 nM, respectively.

In the case of `C=CC(=O)N1CCN(c2nc(OCCN3CCC(COCC(=O)N[C@H](C(=O)N4C[C@H](O)C[C@H]4C(=O)N[C@@H](C)c4ccc(-c5scnc5C)cc4)C(C)(C)C)CC3)nc3c(F)c(-c4cc(O)cc5ccccc45)c(Cl)cc23)CC1` (atropisomer, axis not shown) [Compound 9, (2S,4R)-1-[(2S)-2-(2-{[1-(2-{[6-chloro-8-fluoro-7-(3-hydroxynaphthalen-1-yl)-4-[4-(prop-2-enoyl)piperazin-1-yl]quinazolin-2-yl]oxy}ethyl)piperidin-4-yl]methoxy}acetamido)-3,3-dimethylbutanoyl]-4-hydroxy-N-[(1S)-1-[4-(4-methyl-1,3-thiazol-5-yl)phenyl]ethyl]pyrrolidine-2-carboxamide], the “KRas^G12C-HiBiT (MiaPaCa; 0.1% DMSO) DMax” value at HiBit-KRAS^G12C [1] (MiaPaCa-2 HiBit-KRas^G12C cells, 0.1% DMSO, maximum degradation) is recorded as “A (A ≥ 70)”. For the same compound, the “KRas^G12C-HiBiT (MiaPaCa; 0.5% DMSO) DMax” value at HiBit-KRAS^G12C [1] (setting [10]) was “A (A ≥ 70)”. Also, the “KRas^G12C-HiBit (SW1573; 0.1% DMSO) Dmax**” value on HiBit-KRAS^G12C [2] (SW1573 HiBit-KRas^G12C, 0.1% DMSO) is recorded as “A (A ≥ 70)”. The DC50 on HiBit-KRAS^G12C [2] (setting [6]) lay within 100 to 1000 nM.

In the case of `C=CC(=O)N1CCN(c2nc(OCCN3CCC(COCC(=O)N[C@H](C(=O)N4C[C@H](O)C[C@H]4C(=O)N[C@@H](C)c4ccc(-c5scnc5C)cc4)C(C)(C)C)CC3)nc3c(F)c(-c4cc(O)cc5ccccc45)c(Cl)cc23)C[C@@H]1CC#N` (atropisomer, axis not shown) [Compound 163, (2S,4R)-1-[(2S)-2-[2-({1-[2-({6-chloro-4-[(3S)-3-(cyanomethyl)-4-(prop-2-enoyl)piperazin-1-yl]-8-fluoro-7-(3-hydroxynaphthalen-1-yl)quinazolin-2-yl}oxy)ethyl]piperidin-4-yl}methoxy)acetamido]-3,3-dimethylbutanoyl]-4-hydroxy-N-[(1S)-1-[4-(4-methyl-1,3-thiazol-5-yl)phenyl]ethyl]pyrrolidine-2-carboxamide], the “KRas^G12C-HiBiT (MiaPaCa; 0.5% DMSO) DMax” value at HiBit-KRAS^G12C [1] (setting [10]) is given as “A (A ≥ 70)”. Further, the “KRas^G12C-HiBiT (SW1573; 0.5% DMSO) Dmax**” value at HiBit-KRAS^G12C [2] (setting [11]) is on record as “A (A ≥ 70)”.

Regarding `C=C(F)C(=O)N1CCN(c2nc(O[C@H](C)CN3CCC(COc4cc([C@H](C(=O)N5C[C@H](O)C[C@H]5C(=O)N[C@@H](C)c5ccc(-c6scnc6C)cc5)C(C)C)on4)CC3)nc3c(F)c(-c4cc(O)cc5ccccc45)c(Cl)cc23)C[C@@H]1CC#N` [Compound 155, (2S,4R)-1-[(2R)-2-[3-({1-[(2R)-2-({6-chloro-4-[(3S)-3-(cyanomethyl)-4-(2-fluoroprop-2-enoyl)piperazin-1-yl]-8-fluoro-7-(3-hydroxynaphthalen-1-yl)quinazolin-2-yl}oxy)propyl]piperidin-4-yl}methoxy)-1,2-oxazol-5-yl]-3-methylbutanoyl]-4-hydroxy-N-[(1S)-1-[4-(4-methyl-1,3-thiazol-5-yl)phenyl]ethyl]pyrrolidine-2-carboxamide], the Dmax at HiBit-KRAS^G12C [1] (setting [8]) and at HiBit-KRAS^G12C [2] (setting [9]) was below 35% throughout. Also, the DC50 on HiBit-KRAS^G12C [1] (setting [4]) and on HiBit-KRAS^G12C [2] (setting [7]) was 100 to 1000 nM each time.
